# Data: patent publication US9198415B2, “Plant irrigation methods” (Syngenta Participations AG, priority 2010, dated 2015)
# Marks after values point to notes of the source that are not given here.
# Tests used:
# Type in all cases: in vivo
# Corn plants = assay: Corn in 55-gal lysimeter containers, sub-surface chemigation, deficit water conditions, yield and root architecture; details: maximum labeled rate; for Yield (% difference from UTC): sub-surface chemigation at V3/V4, deficit water (50% plant-available water), 12 plants; for Relative number of fine roots (% difference from UTC): sub-surface chemigation at V3/V4, deficit water, measured within 2 weeks of harvest by digital imaging
# Excerpt: In this experiment, standardized growth conditions were applied across all corn treatments including: soil-water availability, soil texture and composition, soil chemical and physical properties, meteorological and environmental parameters, and plant nutrition in a greenhouse. No indication of plant disease or pest damage was observed over the course of the study and no pest management program was necessary. A homogeneous sand-organic matter soil mixture (0.18% organic matter) was used as the growth medium in 55-gal containers. These containers were used as a weighing lysimeter, where daily changes in system weight were used to calculate plant transpiration. Four corn plants were grown in each 55-gal container. Three 55-gal containers (12 plants total) made up each treatment. All irrigation and chemical treatments were applied via sub-surface irrigation. Chemical treatments consisted of: azoxystrobin (Quadris), paclobutrazol (Trimmit), trinexapac-ethyl (Moddus), and propiconazole (Tilt) at maximum labeled rates.
# Corn plants were grown from seed and transplanted in the 55-gal drums approximately 14 days after planting. Uniform adequate irrigation was applied up to growth stage V3/V4 to ensure plant establishment. Chemical treatment applications were applied at growth stage V3/V4 via sub-surface chemigation. At stage V3/V4, irrigation was decreased to replicate deficit water conditions across all treatments for the remainder of the study period. Irrigation was managed daily to maintain 50% plant-available water. Visual signs of abiotic plant stress were observed approximately 30 days after chemical application. All corn plants were grown to yield and cobs were harvested when kernels were uniformly dry (15% moisture content). Root architecture, specifically relative number of fine roots, was measured at within 2 weeks of harvest using a digital imaging technique. Fine roots are related to water uptake productivity, which is directly tied to the ability of the plant to access soil-water under stress.
# Effects of the chemical treatments via sub-surface irrigation on yield and root architecture were specifically documented. The effects are herein reported as the percentage increase compared to the untreated check (12 plants in three containers). […] Azoxystrobin, paclobutrazol, and trinexapac-ethyl were statistically different from the control (P values: <0.001 at the 95th percentile confidence interval).
# Soybean plants [1] = assay: Soybean plants in pouches, drench application, severe drought stress, qualitative ranking of physiological state; details: for Plant physiological state: Desiccated (number of plants in %) / Plant physiological state: Slightly withered (number of plants in %) / Plant physiological state: Strongly withered (number of plants in %) / Plant physiological state: Turgescent (number of plants in %): evaluation 14 days after application
# Protocol: Soybean plants were grown in pouches (in filter paper bags), and 100 plants each were treated with BION at 3 rates (60, 20, 2 ppm), added to the drench water. Sowing and drench application of BION occurred simultaneously. After 8 days of optimal growth, the pouches went dry and plants were grown for several days under severe drought stress conditions until evaluation (14 days after application). A qualitative assessment was carried out, ranking the plants behaviour into four categories corresponding to four different physiological states (turgescent, slightly withered, strongly withered and desiccated) (Table 1)
# Soybean plants [2] = assay: Soybean plants in pouches, drench application, drought stress and rewatering, shoot dry weight; details: for Total Shoot Weight: 6 days drought, shoot dry weight 2 days after rewatering, 40 plants, untreated check 4.3 g
# Protocol: Soybean plants were grown in pouches (in filter paper bags) and either BION or Thiamethoxam was applied to the water at different rates (see FIG. 2). Sowing and drench application of the compounds occurred simultaneously. After 8 days of optimal growth, the pouches went dry and plants were grown under drought stress conditions for 6 days. At the end of the drought period, plants were rewatered and shoot dry weight was determined 2 days later (Table 2). In total, 40 plants per treatment and 40 untreated check plants were assessed.
# [3] = 2 ppm in drench water, severe drought
# [4] = 20 ppm in drench water, severe drought
# [5] = 60 ppm in drench water, severe drought
smiles,measurement,setting,value
"CC(C)(C)[C@@H](O)[C@@H](Cc1ccc(Cl)cc1)n1cncn1 (racemic) [Paclobutrazol, (2RS,3RS)-1-(4-chlorophenyl)-4,4-dimethyl-2-(1H-1,2,4-triazol-1-yl)pentan-3-01]",Yield (% difference from UTC),Corn plants,16.6† %
same,Relative number of fine roots (% difference from UTC),Corn plants,70.0† %
"CSC(=O)c1cccc2nnsc12 [ASM, S-methyl benzo[1,2,3]thiadiazole-7-carbothioate]",Plant physiological state: Desiccated (number of plants in %),Soybean plants [1]; [3],0.0%
same,Plant physiological state: Slightly withered (number of plants in %),Soybean plants [1]; [3],70.0%
same,Plant physiological state: Strongly withered (number of plants in %),Soybean plants [1]; [3],5.0%
same,Plant physiological state: Turgescent (number of plants in %),Soybean plants [1]; [3],25.0%
same,Plant physiological state: Desiccated (number of plants in %),Soybean plants [1]; [4],5.3%
same,Plant physiological state: Slightly withered (number of plants in %),Soybean plants [1]; [4],7.9%
same,Plant physiological state: Strongly withered (number of plants in %),Soybean plants [1]; [4],2.6%
same,Plant physiological state: Turgescent (number of plants in %),Soybean plants [1]; [4],84.2%
same,Plant physiological state: Desiccated (number of plants in %),Soybean plants [1]; [5],0.0%
same,Plant physiological state: Slightly withered (number of plants in %),Soybean plants [1]; [5],15.2%
same,Plant physiological state: Strongly withered (number of plants in %),Soybean plants [1]; [5],0.0%
same,Plant physiological state: Turgescent (number of plants in %),"Soybean plants [1]; 60 ppm in drench water, severe drought, 100 plants",84.8%
same,Treated plants still fully turgescent at the end of the drought period,"Soybean plants [1]; dose not stated, severe drought",more than 80%
same,Behaviour of treated plants after severe drought compared to untreated check,Soybean plants [1]; qualitative,behaved much better after severe drought
same,Total Shoot Weight,Soybean plants [2]; 5 ppm in water,4.1 g
same,Total Shoot Weight,Soybean plants [2]; 15 ppm in water,5.6 g
same,Health of treated plants after drought compared to untreated check,"Soybean plants [2]; qualitative, FIG. 1",behaved extremely healthy
CO/C=C(/C(=O)OC)c1ccccc1Oc1cc(Oc2ccccc2C#N)ncn1 [Azoxystrobin],Yield (% difference from UTC),Corn plants,12.5† %
same,Relative number of fine roots (% difference from UTC),Corn plants,37.3† %
CCCC1COC(Cn2cncn2)(c2ccc(Cl)cc2Cl)O1 (stereo not drawn) [Propiconazole],Yield (% difference from UTC),Corn plants,3.3%
same,Relative number of fine roots (% difference from UTC),Corn plants,39.4† %
CN1COCN(Cc2cnc(Cl)s2)/C1=N\[N+](=O)[O-] [TMX],Total Shoot Weight,Soybean plants [2]; 3 ppm in water,4.6 g
same,Total Shoot Weight,Soybean plants [2]; 12 ppm in water,5.8 g
CCOC(=O)C1CC(=O)C(=C(O)C2CC2)C(=O)C1 (stereo not drawn) [Trinexapac-ethyl],Yield (% difference from UTC),Corn plants,15.6† %
same,Relative number of fine roots (% difference from UTC),Corn plants,34.3† %
